Measured values published in patent US4063022A, “Antisecretory 2-imidazolidinones” (Morton-Norwich Products, Inc., priority 1976, dated 1977).

Tested on: gastric acid secretion
Assay: modified standard pylorus-ligated secretory testing procedure in the rat
Assay type: in vivo, Sprague-Dawley rats
Conditions: 300 mg/kg p.o. 1 hr prior to pylorus ligation, 4 hrs after ligation; for % of Control Vol. of Gastric Secretion: control 0.5% Methocel; for % of Control Gastric Acid Output: titration to pH 7, control 0.5% Methocel
Procedure: Such effect is evidenced using a modified standard pyloruslighted secretory testing procedure in the rat. Sprague-Dawley rats, weighing […] and previously fasted for 24 hrs, were used. All compounds were given perorally as suspensions in 0.5% Methocel 1 hr prior to pylorus ligation. Under light ether anesthesia, the rat stomach was ligated at the pylorus region. Four hrs after ligation the conscious rat was sacrificed by a chloroform overdose. The stomach was carefully excised and its content drained into a centrifuge tube. Samples were centrifuged to separate secretions from debris. Gastric fluid volume reading and determination of sample contamination, based on debris and sample color, was made. Titration was performed on a sample aliquot of 1 ml diluted to a volume of 5 ml using distilled water. The titrant used was 0.1N NaOH. Total gastric acid output in the stomach was determined by titration to ph 7. A dose of 300 mg/kg p.o. of a compound was administered to a group of rats and its effect on the volume of gastric secretion and acid output compared to a control group receiving 0.5% Methocel p.o. The activity of each compound based on the degree of inhibition of gastric acid output is set forth in Table I.

CN1CCN(Cc2ccc(Cl)c(Cl)c2)C1=O [I-B, 1-(3,4-Dichlorobenzyl)-3-methyl-2-imidazolidinone]
% of Control Vol. of Gastric Secretion: 39.2 % of Control | % of Control Gastric Acid Output: 8.9 % of Control

O=C1NCCN1Cc1ccc(Cl)c(C(F)(F)F)c1 [Example 11-C, 1-(4-Chloro-3-trifluoromethylbenzyl)-2-imidazolidinone]
% of Control Vol. of Gastric Secretion: 23.0 % of Control | % of Control Gastric Acid Output: 16.8 % of Control
